Entries after “also recorded” stand apart in the source; their conditions may differ.
Tests used:
IKK [1] = molecular target: T1, IKK (Homo sapiens, UniProt O14920+O15111); assay: In vitro kinase assay of IKK immunoprecipitated from TNFα-stimulated HeLa cells; assay type: biochemical; parameters: Endogenous IKK was immunoprecipitated from TNFα-stimulated HeLa cells; endogenous in cells; host or cells: HeLa; conditions: for IC50: IKK immunoprecipitated from TNFα-stimulated HeLa cells
Description: (§1) Cell lysates were incubated with anti-IKKα (Pharmingen), anti-HA (12CA5; Pharmingen), anti-JNK1 (333.8; Pharmingen), or anti-p38 (New England Biolabs) for 2 hours. Then, 15 μl protein A-Sepharose (Sigma) were added and the mixture was allowed to incubate for 1 hour. After extensive washing, kinase assays were performed as known in the art (See e.g., DiDonato et al., Nature 388:548-554 [1997]). Endogenous IKK, HA-tagged IKKα, endogenous JNK1, and p38 activities were determined with GST-1κBα(1-54), GST-c-Jun(1-79), and GST-ATF2 as substrates.
Endogenous IKK was immunoprecipitated from TNFα-stimulated HeLa cells and the kinase activity determined in the presence of different concentrations of PGA1 (the results of which are shown in FIG. 2B) or 15dPGJ2 (the results of which are shown in FIG. 2C).
(§2) In this Example, experiments to determined the effects of arachidonic acid and its metabolites on IKK activity in vivo and in vitro are described. HeLa cells were treated with 50 μM AA, PGA1, PGB2, PGD2, PGE1, PGE2, PGF1α, or thromboxane B2 (T×B2), 1 μM LTB4, or 5 μM 15dPGJ2, for 2 hours in RPMI containing 10% FCS, and stimulated with TNFα for 10 minutes. Cell lysates were then assayed for endogenous IKK activity and recovery. In this FIGURE, “control” indicates unstimulated cells, and “-” indicates treatment with diluent alone. In addition, IKK was immunoprecipitated from TNFα-stimulated HeLA cells and incubated in vitro with 100 μM AA, PGA1, PGB2, PGD2, PGE1, PGE2, PGF1α, or T×B2, 2 μM LTB4 or 10 μM 15dPGJ2, followed by kinase assay and immunoblot analysis. In this FIGURE, “control” indicates to unstimulated cells, and “-”indicates 1% ethanol.
Many protein kinase inhibitors compete with binding of ATP, but preincubation in the presence of increasing concentrations of ATP had no effect on inhibition of IKKβ by 15dPGJ2, as indicated in FIG. 6A. […] The pellets were rinsed and kinase activity was measured.

IKK [2] = molecular target: T1, IKK; assay: Endogenous IKK activity (kinase assay) in treated, stimulated HeLa cells; assay type: cell-based; parameters: Endogenous IKK was immunoprecipitated from TNFα-stimulated HeLa cells; endogenous in cells; host or cells: HeLa; conditions: for effect on IKK activity: HeLa cells stimulated with TNFα (PGA1: IL-1 or TNFα)
Description: (§3) Cells used in the experiments described herein were cultured in either RPMI 1640 (Jurkat cells) or DMEM (HeLa and COS cells), supplemented with 10% FBS and antibiotics. Cells were stimulated with either 25 ng/ml TPA, 20 ng/ml recombinant TNFα, or 10 ng/ml interleukin 1β (Sigma). PGA1, 15dPGJ2, T×B2, LTB4, AA and other PGs (Cayman) dissolved in ethanol were used as well, as known in the art (See e.g., Rossi et al., 94:746-750 [1997]). Controls received equal amounts of ethanol. Transfections were performed using Lipofectamine Plus (GIBCO) for HeLa and COS cells and DEAE-dextran (Sigma) for Jurkat cells. Xpress-tagged NIK, Xpress-tagged MEKK1, HA-tagged IKKα, and HA-tagged IKKβ were also used (See e.g., Zandi et al., Science 281:1360-1363 [1998]; and Delhase et al., Science 284:309-313 [1999]). COX2 and cPLA2 expression vectors were obtained from Dr. L. Feng (See also, Hirose et al., J. Am. Soc. Nephrol., 9:408-416 [1998]). PGD synthase was cloned from HT29 colon carcinoma cell line cDNA by PCR and subcloned into a pCDNA3 vector. Cells were lysed in buffer B (50 mM Tris-HCl, pH 7.5, 400 mM NaCl, 1 mM EDTA, 1 mM EGTA, 1% Triton, 0.5% NP-40, 10% glycerol, and supplemented with 20 mM β-glycerophosphate, 10 mM PNPP, 500 mM Na3VO4, 1 mM PMSF, 20 μg/ml aprotinin, 2.5 μg/ml leupeptin, 8.3 μg/ml bestatin, 1.7 μg/ml pepstatin, and 2 mM DTT).
as §1, §2

JNK = JNK (Homo sapiens, UniProt P45983); assay: JNK activation in TPA-stimulated Jurkat cells; assay type: cell-based; parameters: endogenous in cells; host or cells: Jurkat; conditions: 24 μM PGA1, TPA
Chain of JNK (P45983 whole entry): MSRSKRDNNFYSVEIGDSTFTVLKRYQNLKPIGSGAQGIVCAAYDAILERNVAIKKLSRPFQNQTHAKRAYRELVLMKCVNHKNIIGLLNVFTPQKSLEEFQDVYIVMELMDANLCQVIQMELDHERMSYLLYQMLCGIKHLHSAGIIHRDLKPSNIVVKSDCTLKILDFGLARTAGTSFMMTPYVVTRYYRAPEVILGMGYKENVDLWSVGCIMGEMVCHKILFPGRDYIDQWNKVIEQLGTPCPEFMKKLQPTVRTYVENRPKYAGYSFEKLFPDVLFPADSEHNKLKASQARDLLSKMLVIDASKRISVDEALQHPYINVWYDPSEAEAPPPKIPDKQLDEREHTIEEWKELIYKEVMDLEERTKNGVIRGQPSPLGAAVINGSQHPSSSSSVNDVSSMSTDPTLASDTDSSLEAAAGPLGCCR
Description: as §3, with “Cells were lysed in buffer B (50 mM Tris-HCl, pH 7.5, 400 mM NaCl, 1 mM EDTA, 1 mM EGTA, 1% Triton, 0.5% NP-40, 10% glycerol, and supplemented with 20 mM β-glycerophosphate, 10 mM PNPP, 500 mM Na3VO4, 1 mM PMSF, 20 μg/ml aprotinin, 2.5 μg/ml leupeptin, 8.3 μg/ml bestatin, 1.7 μg/ml pepstatin, and 2 mM DTT).” left out
Cell lysates were incubated with anti-IKKα (Pharmingen), anti-HA (12CA5; Pharmingen), anti-JNK1 (333.8; Pharmingen), or anti-p38 (New England Biolabs) for 2 hours. […] Endogenous IKK, HA-tagged IKKα, endogenous JNK1, and p38 activities were determined with GST-1κBα(1-54), GST-c-Jun(1-79), and GST-ATF2 as substrates. […]

[3] = system: inducible nitric oxide synthase (iNOS); conditions: activated monocytes; cited from earlier work

T1 sequence (O14920 whole entry): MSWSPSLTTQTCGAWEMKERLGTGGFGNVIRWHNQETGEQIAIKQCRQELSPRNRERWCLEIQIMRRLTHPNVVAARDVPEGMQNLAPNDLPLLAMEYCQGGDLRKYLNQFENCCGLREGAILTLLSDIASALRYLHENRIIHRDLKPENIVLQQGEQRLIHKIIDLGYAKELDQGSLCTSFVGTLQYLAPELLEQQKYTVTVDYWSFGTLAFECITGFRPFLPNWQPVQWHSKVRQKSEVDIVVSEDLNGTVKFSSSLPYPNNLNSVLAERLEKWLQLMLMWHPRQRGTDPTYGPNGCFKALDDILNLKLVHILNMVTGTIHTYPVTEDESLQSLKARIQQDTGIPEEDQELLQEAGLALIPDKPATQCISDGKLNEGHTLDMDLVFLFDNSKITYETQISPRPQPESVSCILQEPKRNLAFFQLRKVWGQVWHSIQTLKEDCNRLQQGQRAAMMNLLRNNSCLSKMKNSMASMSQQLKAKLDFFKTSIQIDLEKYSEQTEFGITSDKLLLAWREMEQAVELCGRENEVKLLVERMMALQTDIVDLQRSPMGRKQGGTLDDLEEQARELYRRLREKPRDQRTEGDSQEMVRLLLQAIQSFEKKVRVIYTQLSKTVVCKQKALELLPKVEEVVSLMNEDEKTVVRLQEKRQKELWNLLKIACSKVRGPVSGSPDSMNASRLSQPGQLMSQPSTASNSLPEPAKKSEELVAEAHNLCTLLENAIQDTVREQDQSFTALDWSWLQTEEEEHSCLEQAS
T1 sequence (O15111 whole entry): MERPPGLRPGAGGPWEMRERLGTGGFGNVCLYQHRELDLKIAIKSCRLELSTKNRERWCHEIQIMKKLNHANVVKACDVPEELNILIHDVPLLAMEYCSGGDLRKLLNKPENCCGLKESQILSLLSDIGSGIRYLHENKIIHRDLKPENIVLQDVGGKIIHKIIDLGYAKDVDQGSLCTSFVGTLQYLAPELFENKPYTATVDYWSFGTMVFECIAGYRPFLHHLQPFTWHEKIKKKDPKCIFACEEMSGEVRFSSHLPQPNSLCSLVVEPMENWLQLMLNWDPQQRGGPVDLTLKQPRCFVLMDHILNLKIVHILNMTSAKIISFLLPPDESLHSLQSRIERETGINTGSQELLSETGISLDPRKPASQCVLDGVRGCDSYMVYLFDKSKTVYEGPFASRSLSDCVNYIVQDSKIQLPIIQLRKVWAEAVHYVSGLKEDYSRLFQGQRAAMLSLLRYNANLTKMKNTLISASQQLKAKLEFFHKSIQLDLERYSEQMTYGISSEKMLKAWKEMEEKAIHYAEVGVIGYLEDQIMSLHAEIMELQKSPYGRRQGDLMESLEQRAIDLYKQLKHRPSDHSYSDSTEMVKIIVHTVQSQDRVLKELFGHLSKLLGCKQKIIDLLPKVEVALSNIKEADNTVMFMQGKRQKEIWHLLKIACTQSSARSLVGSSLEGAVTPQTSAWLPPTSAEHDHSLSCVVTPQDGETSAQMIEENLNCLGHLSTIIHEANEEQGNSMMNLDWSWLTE
T1 sequence (Q9Y6K9 whole entry partner): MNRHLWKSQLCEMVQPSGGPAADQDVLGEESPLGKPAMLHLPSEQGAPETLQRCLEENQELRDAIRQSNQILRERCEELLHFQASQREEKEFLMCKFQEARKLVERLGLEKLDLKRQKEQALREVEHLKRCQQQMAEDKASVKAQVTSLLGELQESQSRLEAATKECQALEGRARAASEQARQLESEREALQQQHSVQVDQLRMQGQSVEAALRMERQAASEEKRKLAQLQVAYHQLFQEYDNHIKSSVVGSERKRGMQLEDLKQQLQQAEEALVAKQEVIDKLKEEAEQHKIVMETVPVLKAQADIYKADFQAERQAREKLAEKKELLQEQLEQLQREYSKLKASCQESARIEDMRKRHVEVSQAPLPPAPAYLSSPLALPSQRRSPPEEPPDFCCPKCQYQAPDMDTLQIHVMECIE

Compound | IC50 (IKK [1]) [µM] | effect on IKK activity (IKK [2]) | effect on activation of JNK (JNK) | effect of pre-incubation with increasing ATP on inhibition (ATP competition) (IKK [1]; 15dPGJ2 0-30 μM with or without ATP, 4° C., 30 minutes) | IC50 (IKK [2]; HeLa cells, TNFα, read-out: half-maximal inhibition of IKK activity) [µM] | production of inducible nitric oxide synthase (iNOS) [3]
CCCCC[C@H](O)/C=C/[C@H]1C=CC(=O)C1CCCCCCC(=O)O (some centres unmarked) [PGA1, prostaglandin A1] | 79.8 | inhibited | did not inhibit |  |  | 
CCCCC/C=C/C=C1/C(=O)C=C[C@@H]1C/C=C\CCCC(=O)O [15dPGJ2, 15-deoxy-Δ^12-14-PGJ2] | 7.08 | inhibited |  | had no effect; also recorded: not a competitive inhibitor of ATP binding | 5.08 | inhibits
